For one data set, the system named is Fibroblast. Briefly: Cell cycle analysis by flow cytometry (PI staining, sub G0G1). Particulars: 50 µM RB, 24-h treatment, untreated 0.00. In kind it is cell-based, human. The method, then:
(§1) Apoptotic cells were detected using Propidium Iodide (PI) staining of treated cells followed by flow cytometry to detect the sub-G1 peak. It has been reported that small segments of DNA caused by DNA fragmentation can be eluted following incubation in a hypotonic phosphate-citrate buffer. When stained with a quantitative DNA binding dye such as PI, cells that have lost DNA will take up less stain and will appear to the left of the G1 peak.
(§2) Briefly, melanoma cells were cultured overnight in a 6-well plate to subconfluence and treated with RB (50 µM) for 24 h. Floating and adherent cells were harvested by a trypsin-based method and fixed by ice cold 70% ethanol. Cells were incubated at 4 °C for at least 24 h in the dark and stained using 70 μM Propidium Iodide in 500 µl of a 38-mM hypotonic tri-sodium citrate buffer supplemented with 5 μg/mL RNase A before flow cytometric analysis using a FACScan. […]
(§3) 6. Cell Cycle Analysis by Flow Cytometry
(§4) After determining that RB decreased cell viability of human skin melanoma cells in a dose-dependent manner, the mechanism of cell death was investigated by flow cytometry. As RB-induced cell death was evident upon exposure to concentrations >50 μM, the cells were treated with 50-μM RB in water, SEME+PG and SEME-PG for 24 h for cell cycle analysis. […]
(§5) increases in apoptotic cell populations when cells were treated with RB-loaded SEMEs compared to […]
(§6) selective cell death mechanism could be a key for an effective antimelanoma drug.
(§7) Figure S7. Cell cycle histograms after RB treatment. RB induces apoptosis in melanoma cells. Flow cytometry histograms of apoptosis assays by the PI method. Cells were treated with 50 μM of RB incorporated in different delivery systems for 24 h. The SubG0G1 region (shown by asterisks) indicates the presence of apoptotic cells induced in melanoma cells treated with RB incorporated in SEMEs.
(§8) The percentages of apoptotic cell populations in cancerous and non-cancerous cells are shown in […]
(§9) Table 4 of the manuscript. […]
(§10) with RB loaded in a SEME containing PG.
For orientation: In flow cytometry, cells or beads pass a laser one at a time.

Data set [1] has as its system WM164. The data set is described as above. Type of data set: cell-based, human. Particulars: WM164, 50 µM RB, 24-h treatment; untreated 3.94. The method, then: as §1, §2, §3, §4, §5, §6, §7, §8, §9, §10
The subject of data set [2] is D24. The data set is described as above. Type of data set: cell-based, human. Particulars: D24, 50 µM RB, 24-h treatment; untreated 2.54. The method, then: as §1, §2, §3, §4, §5, §6, §7, §8, §9, §10
For data set [3], the system named is HaCaT. Described as above. In kind it is cell-based, human. Particulars: 50 µM RB, 24-h treatment, untreated 1.07. Here is the method: as §1, §2, §3, §4, §5, §6, §7, §8, §9, §10
Data set [4] deals with WM1366. The description is as above. Type of data set: cell-based, human. Particulars: WM1366, 50 µM RB, 24-h treatment; untreated 0.89. The method, then:
as §1, §2, §3, §4, §5, §6, §7, §8, §9, §10

On the set-up of data set [5]: method as in PubChem. Particulars: ref PubChem; cited from earlier work.
In data set [6] the test system is primary skin fibroblast cells. Briefly: MTT assay, inhibitory effect of RB in different delivery systems. In kind it is cell-based, human. The method, then: (§11) Human melanoma cell lines (WM164, WM1366, and D24), spontaneously immortalized normal human keratinocytes (HaCaT), and primary skin fibroblast cells were kindly provided by A/Prof. Helmut Schaider’s laboratory (University of Queensland Diamantina Institute). The cells were grown in RPMI medium (+ L-glutamine) supplemented with 5% (v/v) FBS and 2% penicillin/streptomycin—except for the fibroblast cells which were cultured in DMEM. Cells were routinely grown in culture flasks and maintained at 37 °C in a humidified 5% CO2 atmosphere. The culture media was replaced with fresh media every two to three days. Cells were detached using trypsin–EDTA when they reached approximately 80% confluence to seed or subculture. A low passage number (6–12) of primary fibroblast was used during the experiments, and regular microbial contamination testing was done.
(§12) For the 72-h MTT assay, cells were seeded into flat bottom 96-well cell culture plates in 100 μL of complete culture medium at the initial density of […]. Cells were incubated under 5% CO2 at 37 °C for 24 h for adhering to the wells and medium was then replaced with 100 μL of fresh medium containing treatment solution at the required final concentration. Each concentration was tested in 3 replicates in 3 independent studies and control cells were exposed to the culture medium only.
(§13) The MTT cell viability assay was also used as a proxy measure for cell proliferation. Cells were plated in 96-well culture plates, at a density of 8000 cells per well in 100 μL of medium and incubated for 24 h. Treatment solutions of active drug in milli-Q® water or incorporating in SEME were prepared in cell culture medium immediately before use and added in a volume of 100 μL at desired final concentrations. After a specific period, cell viability was evaluated by MTT assay. All experiments were performed in triplicate.
(§14) The cytotoxicity of the excipients and formulations (treatments) was expressed as an IC50 value (concentration causing 50% death of the cell population). The IC50 value for each treatment concentration was calculated from the dose–response curves plotted in GraphPad Prism 7 (GraphPad Software Inc. California, USA) with log (treatment concentration) on the x-axis and percentage survival on the y-axis. The IC50 value was obtained by fitting the dose–response curve with a nonlinear regression curve (Dose-response-inhibition) on GraphPad Prism 7. […] All IC50 values were expressed as v/v (%).

Data set [7] relates to WM164. The description is as above. In kind it is cell-based, human. Here is the method:
as §11, §12, §13, §14

Data set [8] has as its system D24. The data set is described as above. In kind it is cell-based, human. Here is the method:
as §11, §12, §13, §14

For data set [9], the system named is HaCaT. Described as above. Type of data set: cell-based, human. The method, then: as §11, §12, §13, §14
Data set [10] relates to WM1366. The data set is described as above. In kind it is cell-based, human. The method, then: as §11, §12, §13, §14
The test system of data set [11] is WM164. Briefly: MTT cell viability assay of SEMEs and excipients (60 min). Type of data set: cell-based, human. Particulars: WM164, 60 min incubation; mean (95% CI), n = 5; >Max Conc. = not reaching the sensitive range for the applied concentrations. Here is the method:
as §11
(§15) To exclude any toxic effect of the blank SEMEs and their constituents on human skin cells, an MTT cell viability test was performed based on the original protocol. In this assay, the yellow tetrazolium salt MTT is reduced to insoluble purple formazan crystals by metabolically live cells.
(§16) After 60 min incubation of treated cells, the excipient-containing medium was removed, and 100 μL of MTT in PBS (5 mg/mL) diluted 1:10 in medium was then added. Plates were further incubated in the dark for 2–3 h, after which time the wells were emptied and the purple formazan was dissolved by addition of 200 μL of DMSO to each well. Plates were located in a shaker for 5 min at room temperature and the absorbance of the solutions in the wells was measured at 570 nm using a microplate reader (Multiskan™ FC Microplate Photometer). The impact of each treatment was determined as the percentage of reduced tetrazolium salt against the control cells (untreated cells with medium only).
(§17) The cytotoxicity at each excipient concentration was expressed as a percentage of viability against the untreated control wells (the mean optical density of untreated cells was set at 100% viability) to construct a dose-dependent cytotoxicity plot.
(§18) The percentage viability was calculated as follows (Equation (1)):(1) % Viability= Mean absorbance of treated wells/Mean absorbance of control wellno excipients ×100.
as §14
For orientation: Tetrazolium dyes change colour on reduction, which living cells bring about.

The subject of data set [12] is HaCaT. The data set is described as above. Type of data set: cell-based, human. Particulars: 60 min incubation, mean (95% CI), n = 5, >Max Conc. = not reaching the sensitive range. The method, then: as §11, §15, §16, §17, §18, §14
Data set [13] deals with WM1366. The description is as above. In kind it is cell-based, human. Particulars: WM1366, 60 min incubation; mean (95% CI), n = 5; >Max Conc. = not reaching the sensitive range. The method, then: as §11, §15, §16, §17, §18, §14
Data set [14] deals with primary skin fibroblast cells. The description is as above. Type of data set: cell-based, human. Particulars: 60 min incubation, mean (95% CI), n = 5, >Max Conc. = not reaching the sensitive range. Here is the method: as §11, §15, §16, §17, §18, §14
In data set [15] the test system is D24. Described as above. Particulars: D24, 60 min incubation; mean (95% CI), n = 5; >Max Conc. = not reaching the sensitive range. In kind it is cell-based, human. Here is the method: as §11, §15, §16, §17, §18, §14
Data set [16] has as its system WM164, WM1366, D24, HaCaT and fibroblast cells. Briefly: MTT cell viability assay of excipients, all tested cell lines together. In kind it is cell-based, human. Particulars: 60 min MTT; maximum concentration used 10 (v/v %). The method, then:
To exclude any toxic effect of the blank SEMEs and their constituents on human skin cells, an MTT cell viability test was performed based on the original protocol. In this assay, the yellow tetrazolium salt MTT is reduced to insoluble purple formazan crystals by metabolically live cells. After 60 min incubation of treated cells, the excipient-containing medium was removed, and 100 μL of MTT in PBS (5 mg/mL) diluted 1:10 in medium was then added. Plates were further incubated in the dark for 2–3 h, after which time the wells were emptied and the purple formazan was dissolved by addition of 200 μL of DMSO to each well. Plates were located in a shaker for 5 min at room temperature and the absorbance of the solutions in the wells was measured at 570 nm using a microplate reader (Multiskan™ FC Microplate Photometer). The impact of each treatment was determined as the percentage of reduced tetrazolium salt against the control cells (untreated cells with medium only). […] The IC50 value for each treatment concentration was calculated from the dose–response curves plotted in GraphPad Prism 7 (GraphPad Software Inc. California, USA) with log (treatment concentration) on the x-axis and percentage survival on the y-axis. […] All IC50 values were expressed as v/v (%).

A word on the log P: it is the decadic logarithm of the partition coefficient of the neutral form, usually between octanol and water. On to `O=C([O-])c1c(Cl)c(Cl)c(Cl)c(Cl)c1-c1c2cc(I)c(=O)c(I)c-2oc2c(I)c([O-])c(I)cc12.[Na+].[Na+]` [RB, 4,5,6,7-tetrachloro-2, 4′, 5′, 7--tetraiodofluorescein disodium salt], for which the “Apoptotic Cells % (Sub G0G1)” value in the data set on Fibroblast is given as 0.99%; with WM164 [1], 6.69%; with D24 [2], 2.66%; with HaCaT [3] it was 1.15%; with WM1366 [4], 2.29%. Also, in [5], the “log P” value is listed as 7.6. For the same molecule, the IC50 in data set [6] (RB and encapsulated RB, 48 h incubation, concentration of RB, mean (95% CI), n = minimum of 4) was determined as 188 µM; in data set [6] (RB aqueous solution, 24 h) it was 238 µM; in [6] (RB aqueous solution, 48 h (Table 2)), 459 µM; in data set [6] (RB aqueous solution, 72 h), 108 µM; with WM164 [7] (RB and encapsulated RB, WM164, 48 h incubation, concentration of RB, mean (95% CI), n = minimum of 4, vehicle concentration constant), 103 µM; in the data set on WM164 [7] (RB aqueous solution, WM164, 24 h), 112 µM. For the same molecule, the IC50 is 107 µM in the data set on WM164 [7] (RB aqueous solution, WM164, 48 h (Table 2)); 109 µM in the data set on WM164 [7] (RB aqueous solution, WM164, 72 h); 45.6 µM with D24 [8] (RB and encapsulated RB, D24, 48 h incubation, concentration of RB, mean (95% CI), n = minimum of 4); 131 µM in the data set with D24 [8] (RB aqueous solution, D24, 24 h); 70 µM with D24 [8] (RB aqueous solution, D24, 48 h (Table 2)); 27.3 µM in the data set on D24 [8] (RB aqueous solution, D24, 72 h). The IC50 was 153 µM with HaCaT [9] (RB and encapsulated RB, 48 h incubation, concentration of RB, mean (95% CI), n = minimum of 4, read-out: IC50); 2250 µM in the data set with HaCaT [9] (RB aqueous solution, 24 h, read-out: IC50); 221 µM in the data set with HaCaT [9] (RB aqueous solution, 48 h (Table 2), read-out: IC50); “>Max Conc” with HaCaT [9] (RB aqueous solution, 72 h); 98.9 µM in the data set with WM1366 [10] (RB and encapsulated RB, WM1366, 48 h incubation, concentration of RB, mean (95% CI), n = minimum of 4, read-out: IC50); “>Max Conc” in the data set with WM1366 [10] (RB aqueous solution, WM1366, 24 h). Also, the IC50 is 110 µM with WM1366 [10] (RB aqueous solution, WM1366, 48 h (Table 2), read-out: IC50) and about 114 µM in the data set on WM1366 [10] (RB aqueous solution, WM1366, 72 h, read-out: IC50).

Consider `CC(O)CO` (centres unmarked) [PG, propylene glycol], for which the IC50 entry in the data set on WM164 [11], with HaCaT [12] and in the data set on WM1366 [13] was “>Max Conc” throughout.

For `CCOCCOCCO` [Transcutol®, diethylene glycol monoethyl ether], the IC50 result in data set [14] is “>Max Conc”; with WM164 [11] it was ~5.6 (very wide) v/v %; with D24 [15] it was 4.55 (3.1-8.2) v/v %; in the data set on HaCaT [12], 5.75 (very wide) v/v %; with WM1366 [13], “>Max Conc”. In addition, the “IC50, range over all the cell lines” value in [16] was ≥ 4.55 v/v (%).
